Source: patent publication US8586533B2, “Treatment of early-stage osteoarthritis” (Kaohsiung Medical University, priority 2008, dated 2013)

Tests used:
Type in all cases: cell-based
[1] = tested on: human articular chondrocytes; assay: TUNEL staining, rate of apoptosis in chondrocyte cultures; details: azaC cultures, 14 days, P<0.01
Experimental: (§1) Chondrocyte cultures were divided into 4 groups.
We measured apoptotic cells using the TUNEL (terminal deoxy-nucleotidyl transferase mediated dUTP nick end labeling) staining method using the In Situ Cell Death Detection Kit, TMR red (Roche, Mannheim, Germany). Following the manufacturer's guidelines, cells were fixed with 4% paraformaldehyde in phosphate buffered saline (PBS) at a cell density of 1×10^6/ml and incubated at room temperature for 10 minutes, and then settled on a slide by centrifugation at a speed of 2,000 rpm for 5 minutes using a cytospin (Cytospin 3; Shandon, Cheshire, UK). Slides were rinsed twice with PBS, and the cells were permeabilized by incubating in permeabilization solution (0.1% Triton X-100 in 0.1% sodium citrate) for 2 minutes on ice. The TUNEL reaction mixture containing terminal deoxynucleotidyl transferase and rhodamine (the labeling dye) was added to the slides and incubated at 37° C. in a humidified chamber in the dark for 60 minutes. The reaction was stopped by a blocking buffer (0.1% Triton X-100/0.5% bovine serum albumin in PBS). Cells were counterstained by 4′,6-diamidino-2-phenylindole (DAPI). The slides were observed under a fluorescence microscope with an excitation wavelength of 580 nm for rhodamine and 365 nm for DAPI. Cell nuclei were stained blue by DAPI, and only apoptotic cells were stained red by rhodamine. Stained cells were counted in 5 microscopic fields (1.566 mm^2/field) on each slide. Data were analyzed using Image-Pro Plus analysis software (Media Cybernetics, Silver Spring, Md.). The rate of apoptosis in chondrocytes was defined as the ratio of red-stained cells (apoptotic cells) to blue-stained cells (total cells).
By using TUNEL staining, the rate of apoptosis in human articular chondrocyte cultures in the control, azaC, and azaC plus PTH groups were compared after 14 days of PTH(1-34) treatment (for the azaC plus PTH group).

[2] = tested on: human articular chondrocytes; assay: Dimethylmethylene blue (DMMB) assay of GAG levels in chondrocyte cultures; details: azaC group, 3 and 7 days after azaC induction, P<0.01
Experimental: as §1
Alginate beads were dissolved as described above and further digested by papain (300 μg/ml) at 60° C. for 18 hours. The levels of DNA and sulfated glycosaminoglycan (GAG) in the samples were quantified using Hoechst 33258 dye and 1,9-dimethylmethylene blue dye, respectively. A standard curve for the DMMB assay was generated using aqueous chondroitin sulfate C solution (Sigma-Aldrich, St. Louis, Mo.) at concentrations ranging from […].

[3] = tested on: human articular chondrocytes; assay: Quantitative real-time PCR of mRNA levels in azaC-induced terminal differentiation culture model; details: azaC group
Experimental: Chondrocyte cultures were divided into 4 groups. […] Louis, Mo.) for 48 hours.

[4] = 7 and 10 days after azaC induction, P<0.01
[5] = after 3 days of azaC induction, P<0.01
[6] = after 7 days of azaC induction, P<0.05

Nc1ncn([C@@H]2O[C@H](CO)[C@@H](O)[C@H]2O)c(=O)n1 [azaC, 5-azacytidine]
rate of apoptosis versus control cultures [1]: 4.8 fold increase
GAG levels versus control [2]: significantly lower
ALP mRNA level [3, 4]: 5.3-10.9 times that of control
Col10a1 mRNA level [3, 4]: 2.3-2.4 times that of control
Bax expression ([3]; 14 days after azaC induction, P<0.01): 2.1 times that of control
aggrecan mRNA level ([3]; after 3 days of azaC induction (15 μg/ml, 48 hours), P<0.05): 56 % of control
Col2a1 mRNA level [3, 5]: 46.3 % of control
IHH expression [3, 5]: 6.5 times that of control
Bcl-2 mRNA level ([3]; after 3 days, P<0.05): 3.2 times that of control
aggrecan mRNA level ([3]; after 7 days of azaC induction, P<0.01): 31 % of control
Col2a1 mRNA level [3, 6]: 64.8 % of control
IHH expression [3, 6]: 2.6 times that of control
IHH expression ([3]; after 10 days of azaC induction, P<0.05): 2.7 times that of control
Bcl-2 mRNA level ([3]; after 10 days, P<0.01): 4.7 times that of control
